How the values were obtained:
HCT-116 = assay: Cell-based assay, anti-proliferative activity (Cell Counting Kit-8, 72 hours); conditions: Homo sapiens; HCT-116 cells, 72 hours, Cell Counting Kit-8; read-out: IC50 (μM) HCT-116
Method in brief: (§1)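 CCK-8 viability read 72 h after compound exposure over an 8-point series from 1.5625 to 100 micro-M plus zero. Seeding density 2,000–3,000 cells/well; IC50 from the dilution series.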

HFL1 = assay: as above; conditions: Homo sapiens; HFL1 cells, 72 hours, Cell Counting Kit-8; read-out: IC50 (μM) HFL1
Method in brief: as §1

CCD-18Co = assay: as above; conditions: Homo sapiens; CCD-18Co cells, 72 hours, Cell Counting Kit-8; read-out: IC50 (μM) CCD-18Co
Method in brief: as §1

PC14 = assay: as above; conditions: Homo sapiens, PC-14; PC14 cells, 72 hours, Cell Counting Kit-8; read-out: IC50 (μM) PC14
Method in brief: as §1

SUV39H2 = SUV39H2 (Homo sapiens (Human), UniProt Q9H5I1); conditions: read-out: IC50 (μM) Suv 39H2 assay; enzyme assay
SUV39H2, sequence (Q9H5I1 whole entry): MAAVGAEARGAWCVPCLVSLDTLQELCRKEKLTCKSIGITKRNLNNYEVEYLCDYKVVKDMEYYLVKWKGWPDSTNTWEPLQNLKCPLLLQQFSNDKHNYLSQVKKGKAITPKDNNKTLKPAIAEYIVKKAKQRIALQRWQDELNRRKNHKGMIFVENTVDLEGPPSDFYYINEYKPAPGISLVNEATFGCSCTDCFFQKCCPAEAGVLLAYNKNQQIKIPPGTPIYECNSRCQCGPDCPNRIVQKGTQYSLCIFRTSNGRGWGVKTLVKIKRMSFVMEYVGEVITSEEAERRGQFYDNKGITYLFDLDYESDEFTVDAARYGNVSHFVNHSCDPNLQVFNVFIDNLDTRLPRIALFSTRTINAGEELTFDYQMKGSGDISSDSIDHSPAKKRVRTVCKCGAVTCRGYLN

A549 = assay: Cell-based assay, anti-proliferative activity (Cell Counting Kit-8, 72 hours); conditions: Homo sapiens; A549 cells, 72 hours, Cell Counting Kit-8; read-out: IC50 (μM) A549
Method in brief: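 Seed cells in 96-well format; add inhibitors; measure growth by CCK-8 at end of exposure; derive IC50.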

With COc1cc(OCCN)c(-c2cn3ccc(N4CCN(S(=O)(=O)C5CC5)CC4)cc3n2)cc1Cl [Example 234, 2-(4-chloro-2-(7-(4-(cyclopropylsulfonyl)piperazin-1-yl)imidazo[1,2-a]-pyridin-2-yl)-5-methoxyphenoxy)ethanamine] the IC50 (HCT-116) was 5.3 µM, the IC50 (HFL1) was 6.2 µM and the IC50 (CCD-18Co) was 6.1 µM. The IC50 (PC14) was 6.4 µM, the IC50 (SUV39H2) was 0.0418 µM and the IC50 (A549) was 10 µM.
Compound COc1cc(OC)c(-c2cn3ccc(N4CCNC(CO)C4)cc3n2)cc1Cl (stereo not drawn) [Example 235, (4-(2-(5-chloro-2,4-dimethoxyphenyl)imidazo[1,2-a]pyridin-7-yl)-piperazin-2-yl)methanol] has an IC50 (HCT-116) of 6.6 µM, an IC50 (HFL1) of 4.3 µM and an IC50 (CCD-18Co) of 6.7 µM. For the same compound, the IC50 (PC14) was 5.6 µM, the IC50 (SUV39H2) was 0.0115 µM and the IC50 (A549) was 5.3 µM.
COc1cc(OC)c(-c2cn3ccc(N4CCN(S(=O)(=O)C5CC5)C(CO)C4)cc3n2)cc1Cl (stereo not drawn) [Example 236, (4-(2-(5-chloro-2,4-dimethoxyphenyl)imidazo[1,2-a]pyridin-7-yl)-1-(cyclopropylsulfonyl)piperazin-2-yl)methanol] showed an IC50 (HCT-116) of 4.4 µM, an IC50 (HFL1) of 4.1 µM and an IC50 (CCD-18Co) of 4 µM. For the same compound, the IC50 (PC14) was 3.3 µM, the IC50 (SUV39H2) was 0.00655 µM and the IC50 (A549) was 4.8 µM.
With COC(=O)CCCN1CCN(c2ccn3cc(-c4cc(Cl)c(OC)cc4OC)nc3c2)CC1 [Example 237, methyl 4-(4-(2-(5-chloro-2,4-dimethoxyphenyl)imidazo[1,2-a]pyridine-7-yl)piperazin-1-yl)butanoate] the IC50 (HCT-116) was 10 µM, the IC50 (HFL1) was 10 µM and the IC50 (CCD-18Co) was 10 µM. It also gave an IC50 (PC14) of 10 µM, an IC50 (SUV39H2) of 0.0113 µM and an IC50 (A549) of 10 µM.
In the case of COc1cc(OC)c(-c2cn3ccc(N4CCN(C(=O)C5CC5)CC4)cc3n2)cc1Cl [Example 238, (4-(2-(5-chloro-2,4-dimethoxyphenyl)imidazo[1,2-a]pyridine-7-yl)piperazin-1-yl)(cyclopropyl)methanone], the IC50 (HCT-116) is reported as 2.9 µM, the IC50 (HFL1) is reported as 2.4 µM and the IC50 (CCD-18Co) is reported as 3 µM. It also gave an IC50 (PC14) of 1.6 µM, an IC50 (SUV39H2) of 0.00416 µM and an IC50 (A549) of 2.5 µM.
Compound COc1cc(OC)c(-c2cn3ccc(N4CCN(C5CCCC5)CC4)cc3n2)cc1Cl [Example 239, 2-(5-chloro-2,4-dimethoxyphenyl)-7-(4-cyclopentylpiperazin-1-yl)imidazo[1,2-a]pyridine] has an IC50 (HCT-116) of 1.5 µM, an IC50 (HFL1) of 1.7 µM and an IC50 (CCD-18Co) of 2.1 µM. For the same compound, the IC50 (PC14) was 1.8 µM, the IC50 (SUV39H2) was 0.021 µM and the IC50 (A549) was 1.5 µM.
With COc1cc(OC)c(-c2cn3ccc(N4CCN(CCCC(=O)O)CC4)cc3n2)cc1Cl [Example 240, 4-(4-(2-(5-chloro-2,4-dimethoxyphenyl)imidazo[1,2-a]pyridine-7-yl)piperazin-1-yl)butanoic acid] the IC50 (HCT-116) was 10 µM, the IC50 (HFL1) was 10 µM and the IC50 (CCD-18Co) was 10 µM. It also gave an IC50 (PC14) of 10 µM, an IC50 (SUV39H2) of 0.0063 µM and an IC50 (A549) of 10 µM.
COc1cc(OC)c(-c2cn3ccc(N4CCN(C(=O)C5CCCC5)CC4)cc3n2)cc1Cl [Example 241, (4-(2-(5-chloro-2,4-dimethoxyphenyl)imidazo[1,2-a]pyridine-7-yl)piperazin-1-yl)(cyclopentyl)methanone] showed an IC50 (HCT-116) of 2.4 µM, an IC50 (HFL1) of 1.5 µM and an IC50 (CCD-18Co) of 2.5 µM. The IC50 (PC14) was 1.6 µM, the IC50 (SUV39H2) was 0.00768 µM and the IC50 (A549) was 2.3 µM.
COc1cc(OC)c(-c2cn3ccc(N4CCN(C(=O)C5CC5)CC4)nc3n2)cc1Cl [Example 242, (4-(2-(5-Chloro-2,4-dimethoxyphenyl)imidazo[1,2-a]pyrimidin-7-yl)-piperazin-1-yl)(cyclopropyl)methanone] was tested, and the IC50 (HCT-116) was 10 µM, the IC50 (HFL1) was 10 µM and the IC50 (CCD-18Co) was 10 µM. It also gave an IC50 (PC14) of 6.3 µM, an IC50 (SUV39H2) of 0.0154 µM and an IC50 (A549) of 10 µM.
In the case of COc1cc(OC)c(-c2cn3ccc(N4CCN(C(=O)C5CCCC5)CC4)nc3n2)cc1Cl [Example 243, (4-(2-(5-chloro-2,4-dimethoxyphenyl)imidazo[1,2-a]pyrimidin-7-yl)-piperazin-1-yl)(cyclopentyl)methanone], the IC50 (HCT-116) is reported as 5.8 µM, the IC50 (HFL1) is reported as 4.8 µM and the IC50 (CCD-18Co) is reported as 6.1 µM. It also gave an IC50 (PC14) of 3.3 µM, an IC50 (SUV39H2) of 0.0183 µM and an IC50 (A549) of 4.7 µM.

Reference: US10508109B2 (priority 2015, dated 2019)
